Assay results: PMC9077470 (RSC Advances, 2018)
Converted amounts (≈) assume the structure as drawn.

How the values were obtained:
[1] = Partition coefficients in n-octanol/phosphate buffer (pH 7.4); type: physicochemical; conditions: means ± SD, n = 3
Procedure: The phosphate buffer and octanol were mutually saturated at 20–22 °C before use. Samples were dissolved in the aqueous phase and the n-octanol/phosphate buffer mixtures were shaken for 24 h to reach a distribution equilibrium. The volumes of each phase were chosen so that the solute concentration in the aqueous phase, before and after distribution, could readily be measured using HPLC method. The partition coefficients (P) were calculated from the following equation: [drawing 1] where Ci and Cw represent the solute concentrations in the aqueous buffer phase before and after distribution, respectively, Vw represents the volume of the aqueous phase, and Vo is the volume of the octanol phase.[16]

[2] = Aqueous solubility (equilibrium, distilled water); type: physicochemical; conditions: 25 °C, thermodynamic from solid, 25 ± 2 °C, means ± SD, n = 3, read-out: S (aqueous solubility)
Procedure: The mixtures were placed in an ultrasonic water bath for 10 min and then shaken for 24 h to establish a saturation equilibrium. Upon filtration, the filtrate was diluted with an appropriate amount of water and the mixture was analyzed by HPLC, the concentration of each compound in its saturated solution was calculated.

[3] = In vitro incubation with small intestine contents of rats; type: in vitro ADME; conditions: rat small intestine contents homogenate, pH 6.8, 37 °C, after 4 h of incubation
Procedure: After anesthetized with diethyl ether, rats were sacrificed and their contents of stomach and small intestine were collected and homogenized respectively, the homogenate was diluted with buffer solution (pH 1.2 for stomach contents, pH 6.8 for small intestine contents) to 20% (w/v). […] After 0.25, 0.5, 1.0, 1.5, 2.0, 3.0 and 4.0 h of incubation, 200 μL of samples were collected and replaced with the same volume of blank homogenate, then samples were centrifuged at 13 000 rpm for 5 min, filtered with membrane filter, and analyzed by HPLC. The residual contents of each prodrug in homogenate were calculated and the hydrolysis curves were drawn.

[4] = test system: MPO activity in colonic tissues; experiment: TNBS-induced colitis: MPO activity in colonic tissues; type: in vivo, mice; conditions: for MPO activity in colonic tissues: vs TNBS group, p < 0.01; for MPO activity, compared with positive control: vs positive control
Procedure: Colitis was induced according to the previous study.[18,19] Briefly, after 12 h of fasting, mice were anesthetized with intraperitoneal pentobarbital sodium (35 mg kg^-1) before the induction of colitis. 0.1 mL of 50% (v/v) ethanol contained 2.5% (v/v) TNBS was instilled into the colon 3.5-4 cm from the anus by a gavage needle. The mice were kept in a head-down position for 30 s to prevent leakage of the intracolonic instillation. Mice in the control group received normal saline instead of TNBS solution, a physical mixture of 5-ASA and sodium butyrate was used as the positive control. […] The treatments were given once daily for 5 continuous days starting 24 hours after the induction of colitis. […] Samples were freeze-thawed three times, after which sonication was repeated. Homogenates were then centrifuged at 13 000 rpm for 30 min and MPO was extracted from the resulting supernatant.[25] MPO activity was measured by the assay kit according to its provider's instructions.

Compound	P (partition coefficient) [1]	logP at 24 h [1]	solubility at 24 h [2]	residual content of prodrug in small intestine contents [3]	MPO activity in colonic tissues [4]	MPO activity, compared with positive control [4]
CCCC(=O)OCC(COC(=O)CCC)OC(=O)c1cc(N=Nc2ccc(O)c(C(=O)OC(COC(=O)CCC)COC(=O)CCC)c2)ccc1O [Ols-DBP]	2.94 ± 0.37	0.47 ± 0.06	190 ± 40 mg/mL (≈ 260 mM)	90.4%	significantly decreased	significantly better than the positive control
CCCC(=O)Oc1ccc(N=Nc2ccc(OC(=O)CCC)c(C(=O)O)c2)cc1C(=O)O [Ols-DB, 3,3′-azobis(6-hydroxybenzoicacid)dibutyrate]	2.10 ± 0.24	0.32 ± 0.05	270 ± 30 mg/mL (≈ 610 mM)	5.5%	significantly decreased	significantly better than the positive control
CCCC(=O)OCC(COC(=O)CCC)OC(=O)c1cc(N)ccc1O [5-ASDB, 2-(1,3-dibutyroxypropyl)-5-aminosalicylate]	3.81 ± 0.35	0.58 ± 0.04	80 ± 20 mg/mL (≈ 218 mM)	94.7%	significantly decreased	significantly better than the positive control
